From US20130096105A1, “ArylSulfonamide Based Matrix Metalloprotease Inhibitors” (NOVARTIS AG, priority 2008, published 2013) come the findings set out here.

In experiment [1] the target is T1, Gelatinase (MMP-2) (Homo sapiens, UniProt P08253).
T1 sequence (P08253 110-660): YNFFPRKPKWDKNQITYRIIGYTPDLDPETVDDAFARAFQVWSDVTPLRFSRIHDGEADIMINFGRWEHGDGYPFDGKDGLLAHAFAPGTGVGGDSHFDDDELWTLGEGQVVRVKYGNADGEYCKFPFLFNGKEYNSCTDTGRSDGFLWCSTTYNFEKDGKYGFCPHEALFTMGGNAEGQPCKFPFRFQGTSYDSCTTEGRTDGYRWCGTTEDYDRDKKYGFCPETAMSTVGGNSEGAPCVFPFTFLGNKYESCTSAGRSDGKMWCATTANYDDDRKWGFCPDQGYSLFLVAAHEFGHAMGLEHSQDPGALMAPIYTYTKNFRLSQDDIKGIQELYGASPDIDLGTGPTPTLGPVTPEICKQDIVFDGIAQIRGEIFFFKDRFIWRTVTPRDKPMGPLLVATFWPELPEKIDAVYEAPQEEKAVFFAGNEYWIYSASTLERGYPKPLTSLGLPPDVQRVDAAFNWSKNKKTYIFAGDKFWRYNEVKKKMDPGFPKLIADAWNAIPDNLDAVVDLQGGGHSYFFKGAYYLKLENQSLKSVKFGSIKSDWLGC
In words: Gelatinase (MMP-2) inhibitory activity, fluorogenic peptide substrate cleavage. Format: biochemical. The conditions noted are these: read-out: MMP02 IC50. Here is the method: (§1) Gelatinase (MMP-2) inhibitory activities can be determined as follows: Stock solutions of substrate (MCA-Lys-Pro-Leu-Gly-Leu-Dpa-Ala-Arg-NH2) are prepared in DMSO at a concentration of 1.4 mM. Stock solutions of inhibitors (0.03 μM-3 mM) are also prepared in DMSO. The inhibitors are diluted into the assay solutions, and the controls use an equal volume of DMSO so that the final DMSO concentration from the inhibitor and substrate dilutions in all assays is 1.0%. Assays are performed in an assay buffer (100 mM sodium chloride, 10 μM ZnCl. Sub 2, 10 mM CaCl2, 100 mM Tris-Cl pH7.5, 0.05% Brij-35), containing 1.0% DMSO from the substrate and inhibitor additions. The substrate concentration used in the assays is 5 μM. The assays are carried out at 20-25° C. The fluorescence changes, as a result of substrate cleavage, are monitored using an excitation wavelength of 325 nm and an emission wavelength of 405 nm. The reaction mixtures are added in duplicate into appropriate wells of a 384-well assay plate. The reaction mixtures are preincubated with the inhibitors for 60 minutes The reactions are started by the addition of MMP substrate, and the fluorescence intensity changes are measured after 60 minutes The apparent enzyme activity in the presence of an inhibitor is then compared with that in the absence of any inhibitor to determine the inhibition effect of the inhibitor. These techniques are within the knowledge of one skilled in the art. The inhibition results are expressed as the inhibitor concentrations required to effect 50% inhibition (IC50) of the enzyme activity, as compared with the control (non-inhibited) reactions.

Experiment [2] deals with Collagenase-3 (MMP-13) (Homo sapiens, UniProt P45452). In words: Collagenase-3 (MMP-13) inhibitory activity, fluorogenic peptide substrate cleavage. It counts as biochemical. The conditions noted are these: read-out: MMP13 IC50. As for the experimental part:
as §1
Collagenase-3 (MMP-13) inhibitory activity is determined as described above. Recombinant pro-collagenase-3 is activated with 1 mM APMA, and stored in the assay buffer after extensive dialysis in the assay buffer.

pIC50: −log10 of the molar value.

As for “2-Chloro-5-(3-hydroxy-4-methoxy-benzoyl)-benzenesulfonamide [Example 56]”, the results for the pIC50 in experiment [1] and in experiment [2] were less than 4.52 and 4.57, respectively. In the case of “2-Chloro-5-(4-cyclopropyl-benzoyl)-benzenesulfonamide [Example 27]”, the values for the pIC50 in experiment [1] and in experiment [2] were 5.13 and 5.02, respectively.

In the case of “2-Chloro-5-(4-pyridin-4-yl-benzoyl)-benzenesulfonamide [Example 42]”, the figures for the pIC50 in experiment [1] and in experiment [2] were 6.29 and 5.82, respectively.

In the case of “2-Chloro-5-(4-thiophen-2-yl-benzoyl)-benzenesulfonamide [Example 39]”, the pIC50 (usually −log10 of the IC50, conventionally taken in molar units) in experiment [1] is 4.88; in experiment [2], 5.04. The like results for `COc1ccc(C(=O)c2ccc(F)c(S(N)(=O)=O)c2)cc1` [Example 2, 2-Fluoro-5-(4-methoxy-benzoyl)-benzenesulfonamide] were, in that order, 5.62 and 5.80. `COc1ccc(C(=O)c2cc(F)c(F)c(S(N)(=O)=O)c2)cc1` [Example 4, 2,3-Difluoro-5-(4-methoxy-benzoyl)-benzenesulfonamide]: the pIC50 in experiment [1] is 5.33; in experiment [2], 5.24. `COc1ccc(C(=O)c2ccc([N+](=O)[O-])c(S(N)(=O)=O)c2)cc1` [Example 5, 5-(4-Methoxy-benzoyl)-2-nitro-benzenesulfonamide]: the negative logarithm of the IC50 (pIC50) in experiment [1] is 5.97; in experiment [2], 5.86. `COc1ccc(C(=O)c2ccc(C)c(S(N)(=O)=O)c2)cc1` [Example 6, 5-(4-Methoxy-benzoyl)-2-methyl-benzenesulfonamide]: the negative logarithm of the IC50 (pIC50) in experiment [1] is 5.56; in experiment [2], 5.35. For the molecule `COc1ccc(C(=O)c2ccc(SC)c(S(N)(=O)=O)c2)cc1` [Example 7, 5-(4-Methoxy-benzoyl)-2-methylsulfanyl-benzenesulfonamide], the pIC50 was 5.63 in experiment [1] and 5.43 in experiment [2]. With `COc1ccc(C(=O)c2ccc([S+](C)[O-])c(S(N)(=O)=O)c2)cc1` (stereo not drawn) [Example 8, 2-Methanesulfinyl-5-(4-methoxy-benzoyl)-benzenesulfonamide], the pIC50 in experiment [1] is 5.35; in experiment [2], 4.97. The like results for `COc1ccc(C(=O)c2ccc(S(C)(=O)=O)c(S(N)(=O)=O)c2)cc1` [Example 9, 2-Methanesulfonyl-5-(4-methoxy-benzoyl)-benzenesulfonamide] were, in that order, 5.53 and 4.95. The like results for `Cc1cc(-c2c[nH]c3cc(C(=O)c4cccc(S(N)(=O)=O)c4)ccc23)ccn1` [Example 10, 3-[3-(2-Methyl-pyridin-4-yl)-1H-indole-6-carbonyl]-benzenesulfonamide] were, in that order, 5.47 and 7.52.

`COCCCc1cc(-c2c[nH]c3cc(C(=O)c4cccc(S(N)(=O)=O)c4)ccc23)ccn1` [Example 11, 3-{3-[2-(3-Methoxy-propyl)-pyridin-4-yl]-1H-indole-6-carbonyl}-benzenesulfonamide]: the pIC50 in experiment [1] was 5.40; in experiment [2], 7.12. In the case of `COc1ccc(C(=O)c2ccc(Cl)c(S(=O)(=O)NCCc3ccccc3)c2)cc1` [Example 12, 2-Chloro-5-(4-methoxy-benzoyl)-N-phenethyl-benzenesulfonamide], the pIC50 in experiment [1] is 5.04; in experiment [2], 5.52. In the same order, the values of `COc1ccc(C(=O)c2ccc(Cl)c(S(=O)(=O)NCCc3ccc(F)cc3)c2)cc1` [Example 13, 2-Chloro-N-[2-(4-fluoro-phenyl)-ethyl]-5(4-methoxy-benzoyl)-benzenesulfonamide] are 5.06 and 5.16. In the same order, the values of `NS(=O)(=O)c1cccc(C(=O)c2ccc3c(-c4ccnc(CCCN5CCOCC5)c4)c[nH]c3c2)c1` [Example 14, 3-{3-[2-(3-Morpholin-4-yl-propyl)-pyridin-4-yl]-1H-indole-6-carbonyl}-benzenesulfonamide] are 6.10 and 8.00. The like results for `NS(=O)(=O)c1cc(C(=O)c2ccc(O)cc2)ccc1Cl` [Example 15, 2-Chloro-5-(4-hydroxy-benzoyl)-benzenesulfonamide] were, in that order, 5.29 and 5.00. Turning to `CC(C)COc1ccc(C(=O)c2ccc(Cl)c(S(N)(=O)=O)c2)cc1` [Example 17, 2-Chloro-5-(4-isobutoxy-benzoyl)-benzenesulfonamide], the pIC50 in experiment [1] was 5.64; in experiment [2], 5.43. Regarding `CC(C)CCOc1ccc(C(=O)c2ccc(Cl)c(S(N)(=O)=O)c2)cc1` [Example 18, 2-Chloro-5-[4-(3-methyl-butoxy)-benzoyl]-benzenesulfonamide], the figures for the pIC50 in experiment [1] and in experiment [2] were 6.15 and 6.22, respectively. Turning to `NS(=O)(=O)c1cc(C(=O)c2ccc(OCCCc3ccccc3)cc2)ccc1Cl` [Example 19, 2-Chloro-5-[4-(3-phenyl-propoxy)-benzoyl]-benzenesulfonamide], the pIC50 was 5.80 in experiment [1] and 5.91 in experiment [2]. Turning to `CCCCCOc1ccc(C(=O)c2ccc(Cl)c(S(N)(=O)=O)c2)cc1` [Example 20, 2-Chloro-5-(4-pentyloxy-benzoyl)-benzenesulfonamide], the pIC50 in experiment [1] is 4.96; in experiment [2], 4.87.

For the molecule `CCCCCCOc1ccc(C(=O)c2ccc(Cl)c(S(N)(=O)=O)c2)cc1` [Example 21, 2-Chloro-5-(4-hexyloxy-benzoyl)-benzenesulfonamide], the pIC50 in experiment [1] is 5.33; in experiment [2], 6.07. As to `NS(=O)(=O)c1cc(C(=O)c2ccc(Br)cc2)ccc1Cl` [Example 22, 5-(4-Bromo-benzoyl)-2-chloro-benzenesulfonamide], the pIC50 was 4.85 in experiment [1] and 5.69 in experiment [2]. In the case of `NS(=O)(=O)c1cc(C(=O)c2ccc(Br)cc2)ccc1Cl` [Example 23, 5-(4-Bromo-benzoyl)-2-chloro-benzenesulfonamide], the pIC50 was 5.38 in experiment [1] and 6.02 in experiment [2]. Turning to `Cc1cccc(C(=O)c2ccc(Cl)c(S(N)(=O)=O)c2)c1` [Example 24, 2-Chloro-5-(3-methyl-benzoyl)-benzenesulfonamide], the pIC50 was 5.04 in experiment [1] and 5.68 in experiment [2]. Turning to `NS(=O)(=O)c1cc(C(=O)c2ccc(OC(F)(F)F)cc2)ccc1Cl` [Example 25, 2-Chloro-5-(4-trifluoromethoxy-benzoyl)-benzenesulfonamide], the pIC50 is 5.66 in experiment [1] and 5.28 in experiment [2]. In the same order, the values of `CC(C)(C)c1ccc(C(=O)c2ccc(Cl)c(S(N)(=O)=O)c2)cc1` [Example 26, 5-(4-tert-Butyl-benzoyl)-2-chloro-benzenesulfonamide] are 4.76 and 4.98. As to `CCc1nn(Cc2ccccc2)c2cc(C(=O)c3ccc(Cl)c(S(N)(=O)=O)c3)ccc12` [Example 111, 5-(1-Benzyl-3-ethyl-1H-indazole-6-carbonyl)-2-chloro-benzenesulfonamide], the negative logarithm of the IC50 (pIC50) in experiment [1] was less than 4.52. For the molecule `NS(=O)(=O)c1cc(C(=O)c2ccc3c(CCC4CCCC4)n[nH]c3c2)ccc1Cl` [Example 112, 2-Chloro-5-[3-(2-cyclopentyl-ethyl)-1H-indazole-6-carbonyl]-benzenesulfonamide], the negative logarithm of the IC50 (pIC50) in experiment [2] is 6.89.

For `NS(=O)(=O)c1cc(C(=O)c2ccc3c(-c4ccsc4)c[nH]c3c2)ccc1Cl` [Example 127, 2-Chloro-5-(3-thiophen-3-yl-1H-indole-6-carbonyl)-benzenesulfonamide], the negative-log IC50 (pIC50) in experiment [2] was 5.80.
